# Measurements taken from PMC6493276, “Quantification of 1D, a novel derivative of curcumin with potential antitumor activity, in rat plasma by liquid chromatography-tandem mass spectrometry: application to a pharmacokinetic study in rats” (Pharmaceutical Biology, 2019).
# What was measured:
# [1] = Pharmacokinetic study in rats after single intravenous administration; format: in vivo; conditions: male, Sprague-Dawley, rat, plasma
# Method: The applicability of the developed bioanalytical LC-MS/MS method was evaluated by quantitative determination of 1 D in rat plasma after single intravenous administration. All experimental procedures and animal care were performed following approval from the Ethic Committee of Laboratory Animals of the Affiliated Hospital of Qingdao University. Six male Sprague–Dawley rats, weighing 200 ± 15 g, were obtained from Beijing Vital River Experimental Animal Co. Ltd (Beijing, China). The animals were quarantined for 1 week prior to the study and were maintained on a 12 h light/12 h dark cycle at 22 ± 2 °C and at 50 ± 10% relative humidity. The rodents were given a commercial rat chow and water ad libitum. An intravenous dose of 5 mg/kg was selected based on our previous toxicological and pharmacodynamic studies in rats (unpublished data). The administration solution was prepared by dissolving 1 D in PEG400: PG400: DMSO: saline (30: 30: 1: 39, v/v/v/v) to give a concentration of 2 mg/mL. After fasting overnight, rats were given the prepared administration solution at 5 mg/kg via the tail vein. Blood samples (0.2 mL) were collected into heparinized tubes by retro-orbital puncture at 0 (pre-dose), 5, 10, 20, 30, and 45 min, and 1, 1.5, 2, 4, 8, 12, and 24 h after dosing. Plasma was separated by centrifugation at 4500 rpm for 10 min and stored at −20 °C until analysis. The pharmacokinetic parameters including area under the concentration-time curve (AUC), apparent volume of distribution (Vz), elimination half-life (t1/2), and clearance (CLz) were calculated by a non-compartmental analysis method using the DAS 3.0.2 pharmacokinetic programme. As observable parameters, the maximum plasma concentration (Cmax) and the time to reach the maximum concentration (Tmax) were obtained directly.
# [2] = Stability of 1 D in rat plasma under various storage conditions; format: in vitro ADME; conditions: for Accuracy / Measured concentration (mean ± SD): n = 5
# Method: The stability of 1 D in rat plasma was evaluated in five replicates at three QC levels under various storage conditions. […] Short-term and long-term stability were evaluated by storing plasma samples at room temperature for 6 h and −20 °C for 1 month before sample preparation. Freeze-thaw stability of QC samples was assessed after three freeze-thaw cycles (−20 to 25 °C). Autosampler stability was evaluated by keeping the extracted plasma samples in the autosampler for 24 h before analysis. Samples were considered to be stable if assay values were within the acceptable limits of accuracy (±15%) and precision (15% RSD).
# HT29 cells = tested on: HT29 cells; design: method as in Tong et al. [2016]; conditions: treatment for 48 h, ref Tong et al. [2016]; cited from earlier work
# HCT116 cells = tested on: HCT116 cells; design: method as in Tong et al. [2016]; conditions: treatment for 48 h, ref Tong et al. [2016]; cited from earlier work
# HJ1299 cells = tested on: HJ1299 cells; design: method as in Tong et al. [2016]; conditions: treatment for 48 h, ref Tong et al. [2016]; cited from earlier work
# A549 cells = tested on: A549 cells; design: method as in Tong et al. [2016]; conditions: treatment for 48 h, ref Tong et al. [2016]; cited from earlier work
# [3] = single intravenous 5 mg/kg, n = 6
# [4] = extracted rat plasma, spiked 10 ng/mL, autosampler for 24 h
# [5] = extracted rat plasma, spiked 100 ng/mL, autosampler for 24 h
# [6] = extracted rat plasma, spiked 500 ng/mL, autosampler for 24 h
# [7] = rat plasma, spiked 10 ng/mL, 4 weeks at −20 °C
# [8] = rat plasma, spiked 10 ng/mL, 6 h at 25 °C
# [9] = rat plasma, spiked 10 ng/mL, three freeze-thaw cycles
# [10] = rat plasma, spiked 100 ng/mL, 4 weeks at −20 °C
# [11] = rat plasma, spiked 100 ng/mL, 6 h at 25 °C
# [12] = rat plasma, spiked 100 ng/mL, three freeze-thaw cycles
# [13] = rat plasma, spiked 500 ng/mL, 4 weeks at −20 °C
# [14] = rat plasma, spiked 500 ng/mL, 6 h at 25 °C
# [15] = rat plasma, spiked 500 ng/mL, three freeze-thaw cycles
smiles,measurement,setting,value
"Br.COc1ccc(/C=C/c2cc(/C=C/c3ccc(OC)cc3)nc(OCCCCSC(=N)N)n2)cc1 [1 D, (E,E)-4-(4,6-bis(4-methoxystyryl)pyrimidin-2-yloxy)butyl carbamimidothioate hydrobromide]",AUC(0-t),"[1]; 5 mg/kg, intravenous administration, non-compartmental (abstract)",807 ng·h/mL
same,Cmax,[1]; [3],610 ng/mL
same,Tmax,[1]; [3],4.8 min
same,AUC(0-inf),"[1]; single intravenous 5 mg/kg, n = 6, non-compartmental",853 ng·h/mL
same,clearance,"[1]; single intravenous 5 mg/kg, n = 6, read-out: CLz (clearance) (converted)",106 mL/min/kg
same,MRT last,"[1]; single intravenous 5 mg/kg, n = 6, read-out: MRT(0−t)",3.4 h
same,MRT inf,"[1]; single intravenous 5 mg/kg, n = 6, read-out: MRT(0−∞)",4.7 h
same,Vd,"[1]; single intravenous 5 mg/kg, n = 6, read-out: Vz (apparent volume of distribution)",46.6 L/kg
same,half-life,"[1]; single intravenous 5 mg/kg, n = 6, read-out: t1/2 (elimination half-life) (converted)",4.92 h
same,Accuracy,[2]; [4],103.6%
same,Measured concentration (mean ± SD),[2]; [4],10.36 ± 0.75 ng/mL
same,Accuracy,[2]; [5],101.5%
same,Measured concentration (mean ± SD),[2]; [5],101.51 ± 6.43 ng/mL
same,Accuracy,[2]; [6],96.2%
same,Measured concentration (mean ± SD),[2]; [6],481.19 ± 42.98 ng/mL
same,Accuracy,[2]; [7],106.1%
same,Measured concentration (mean ± SD),[2]; [7],10.61 ± 0.55 ng/mL
same,Accuracy,[2]; [8],102.7%
same,Measured concentration (mean ± SD),[2]; [8],10.27 ± 0.56 ng/mL
same,Accuracy,[2]; [9],101.2%
same,Measured concentration (mean ± SD),[2]; [9],10.12 ± 0.66 ng/mL
same,Accuracy,[2]; [10],98.4%
same,Measured concentration (mean ± SD),[2]; [10],98.39 ± 7.52 ng/mL
same,Accuracy,[2]; [11],104.7%
same,Measured concentration (mean ± SD),[2]; [11],104.71 ± 5.16 ng/mL
same,Accuracy,[2]; [12],99.4%
same,Measured concentration (mean ± SD),[2]; [12],99.36 ± 6.92 ng/mL
same,Accuracy,[2]; [13],103.7%
same,Measured concentration (mean ± SD),[2]; [13],518.57 ± 43.30 ng/mL
same,Accuracy,[2]; [14],106.1%
same,Measured concentration (mean ± SD),[2]; [14],530.28 ± 34.32 ng/mL
same,Accuracy,[2]; [15],100.8%
same,Measured concentration (mean ± SD),[2]; [15],503.88 ± 33.79 ng/mL
same,Changes in concentrations after storage (stability in rat plasma),"[2]; room temperature 6 h, −20 °C 1 month, autosampler 24 h, three freeze-thaw cycles",No significant changes
same,IC50,HT29 cells,790 nM
same,IC50,HCT116 cells,1000 nM
same,IC50,HJ1299 cells,920 nM
same,IC50,A549 cells,990 nM
